In assay [1] the target is T1, EGFR T790M/L858R Ba/F3 cell line (Homo sapiens, UniProt P00533, T790M/L858R, cells depend on it).
T1 construct: The constructs were shuttled into the retroviral vector JP1540 using the BD Creator™ System (BD Biosciences)
The assay is described as follows: Ba/F3 cell proliferation (MTS assay). Type of assay: cell-based, murine. To be noted: for Remaining cell proliferation activity (% of control): EGFR T790M/L858R Ba/F3. Here is the method: The EGFR mutant L858R, Del E746_A750, L858R/T790M, DelE746_A750/T790M, L858R/T790M/C797S and Del/T790M/C797S Ba/F3 cells were previously described (Zhou et al., Nature 462, (2009), 1070-1074). All cell lines were maintained in RPMI 1640 (Cellgro; Mediatech Inc., Herndon, Calif.) supplemented with 10% FBS 100 units/mL penicillin, 100 units/mL streptomycin, and 2 mM glutamine. L858R cells were maintained in ACL-4 media (Invitrogen, Carlsbad, Calif.) supplemented with 5% FBS, 100 units/mL penicillin, 100 units/mL streptomycin, and 2 mM glutamine. The EGFR 1941R mutation was introduced via site directed mutagenesis using the Quick Change Site-Directed Mutagenesis kit (Stratagene; La Jolla, Calif.) according to the manufacturer's instructions. All constructs were confirmed by DNA sequencing. The constructs were shuttled into the retroviral vector JP1540 using the BD Creator™ System (BD Biosciences). Ba/F3 cells were infected with retrovirus and according to standard protocols, as described previously (Zhou 2009). Stable clones were obtained by selection in puromycin (2 μg/ml).
Growth and inhibition of growth was assessed by MTS assay and was performed according to previously established methods (Zhou 2009). The MTS assay is a colorimetric method for determining the number of viable cells that is based on the bioreduction of MTS by cells to a formazan product that is soluble in cell culture medium and can be detected spectrophotometrically. […] All experimental points were set up in six wells and all experiments were repeated at least three times. […] The curves were fitted using anon-linear regression model with a sigmoidal dose response.

For assay [2], the target named is T2, recombinant EGFR T790M/L858R kinase (Homo sapiens, UniProt P00533, L858R/T790M).
T2 construct: Constructs spanning residues 696-1022 of the human EGFR; GST (cleaved yes); made in house; host or cells: Sf9 insect cells (pTriEX system)
The assay is described as follows: HTRF-based EGFR biochemical assay. The procedure:
Constructs spanning residues 696-1022 of the human EGFR (including wild type and L858R, L858R/T790M, T790M, and T790M/V948R mutant sequences) were prepared in a GST-fusion format using the pTriEX system (Novagen) for expression in Sf9 insect cells essentially as described (Yun et al., PNAS 105, 2070-2075 (2008); Yun et al., Cancer Cell 11, 217-227 (2007)). EGFR kinase proteins were purified by glutathione-affinity chromatography followed by size-exclusion chromatography after cleavage with TEV or thrombin to remove the GST fusion partner following established procedures.
EGFR biochemical assays were carried out using a homogeneous time-resolved fluorescence (HTRF) assay as described previously. […] All reactions were carried out at room temperature in white ProxiPlate™ 384-well Plus plates (PerkinElmer) and were quenched with 5 μL of 0.2 M EDTA at 60 min.

Setting [3] is: absence of cetuximab, read-out: Ba/F3 cellular activity (EC50) T790M/L858R.
Where [4] appears, read: compound at 1 μM in the presence of 1 μg/mL cetuximab.
The mark [5] stands for this setting: read-out: Ba/F3 cellular activity (EC50) T790M/L858R + Cetuximab (1 μg/mL), presence of 1 μg/mL cetuximab.

Where two headings read alike, the source gives them in different places. A value given as a limit tells only on which side of the number the result lay.

T1 sequence (P00533 whole entry T790M/L858R): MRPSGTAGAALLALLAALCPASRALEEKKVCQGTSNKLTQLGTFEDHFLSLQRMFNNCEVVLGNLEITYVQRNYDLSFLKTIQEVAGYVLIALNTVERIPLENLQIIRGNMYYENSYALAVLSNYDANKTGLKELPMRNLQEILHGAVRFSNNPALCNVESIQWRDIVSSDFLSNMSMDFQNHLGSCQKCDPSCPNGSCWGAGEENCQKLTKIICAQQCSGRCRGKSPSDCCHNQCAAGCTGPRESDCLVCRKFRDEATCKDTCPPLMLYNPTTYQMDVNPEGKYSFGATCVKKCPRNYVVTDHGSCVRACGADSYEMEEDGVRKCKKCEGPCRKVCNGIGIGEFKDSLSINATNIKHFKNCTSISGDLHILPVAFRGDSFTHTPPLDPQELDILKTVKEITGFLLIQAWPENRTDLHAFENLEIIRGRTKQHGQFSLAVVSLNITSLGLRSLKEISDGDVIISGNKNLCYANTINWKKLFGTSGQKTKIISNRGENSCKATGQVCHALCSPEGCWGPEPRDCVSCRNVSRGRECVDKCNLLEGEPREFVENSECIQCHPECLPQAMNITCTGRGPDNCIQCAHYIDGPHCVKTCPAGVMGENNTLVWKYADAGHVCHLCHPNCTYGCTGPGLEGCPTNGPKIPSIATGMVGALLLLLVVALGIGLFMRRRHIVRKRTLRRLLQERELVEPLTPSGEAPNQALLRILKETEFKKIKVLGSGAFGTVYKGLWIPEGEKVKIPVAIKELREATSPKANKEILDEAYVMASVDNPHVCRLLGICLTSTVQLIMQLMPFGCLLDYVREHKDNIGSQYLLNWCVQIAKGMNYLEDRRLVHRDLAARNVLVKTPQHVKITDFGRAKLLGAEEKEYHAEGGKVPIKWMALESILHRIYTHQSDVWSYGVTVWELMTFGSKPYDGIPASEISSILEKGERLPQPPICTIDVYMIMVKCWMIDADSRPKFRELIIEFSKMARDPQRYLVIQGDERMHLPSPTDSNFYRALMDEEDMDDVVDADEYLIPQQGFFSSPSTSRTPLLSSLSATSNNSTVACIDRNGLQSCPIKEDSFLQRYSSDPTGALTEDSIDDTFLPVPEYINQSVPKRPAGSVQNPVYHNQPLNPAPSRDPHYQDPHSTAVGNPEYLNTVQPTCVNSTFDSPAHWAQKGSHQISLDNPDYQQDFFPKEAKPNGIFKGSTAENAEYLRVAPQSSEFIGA
T2 sequence (P00533 696-1022 T790M/L858R): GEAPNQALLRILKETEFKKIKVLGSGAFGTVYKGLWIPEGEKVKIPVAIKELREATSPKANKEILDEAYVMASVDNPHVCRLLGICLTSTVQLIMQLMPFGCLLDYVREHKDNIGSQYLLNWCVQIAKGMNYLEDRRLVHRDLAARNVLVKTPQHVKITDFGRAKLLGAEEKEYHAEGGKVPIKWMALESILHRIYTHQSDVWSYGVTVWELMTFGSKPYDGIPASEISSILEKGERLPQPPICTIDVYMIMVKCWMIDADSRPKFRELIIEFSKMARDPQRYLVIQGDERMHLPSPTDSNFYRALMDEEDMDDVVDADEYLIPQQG

For `O=C1c2cc(-c3ccc(N4CCNCC4)cc3)ccc2Nc2ccc(F)cc2N1Cc1ccccc1` [I-1, 10-Benzyl-8-fluoro-2-(4-(piperazin-1-yl)phenyl)-5,10-dihydro-11H-dibenzo[b,e][1,4]diazepin-11-one], the EC50 was at least 750 nM in assay [1] (setting [3]) and 500 to 750 nM in assay [1] (setting [5]). Also, the “Remaining cell proliferation activity (% of control)” value was “B (25 ≤ B < 50)” in assay [1] (setting [4]) and “D (75 ≤ D)” in assay [1] (compound at 1 μM). For the same compound, in assay [2], the IC50 was below 250 nM.

In the case of `O=C1c2cc(-c3ccc4[nH]ccc4c3)ccc2Nc2ccc(F)cc2N1Cc1ccccc1` [I-2], the EC50 in assay [1] (setting [3]) was at least 750 nM; in assay [1] (setting [5]) it was below 250 nM. Also, the “Remaining cell proliferation activity (% of control)” value in assay [1] (setting [4]) is on record as “B (25 ≤ B < 50)”; in assay [1] (compound at 1 μM) it was “D (75 ≤ D)”.

Regarding `CN1CCC(n2cc(-c3ccc4c(c3)C(=O)N(Cc3ccccc3)c3cc(F)ccc3N4)cn2)CC1` [I-3], the values for the EC50 in assay [1] (setting [3]) and in assay [1] (setting [5]) were at least 750 nM and below 250 nM, respectively. The “Remaining cell proliferation activity (% of control)” value in assay [1] (setting [4]) is “B (25 ≤ B < 50)”; in assay [1] (compound at 1 μM), “D (75 ≤ D)”.

In the case of `O=C1c2cc(-c3ccc(-c4cn[nH]c4)cc3)ccc2Nc2ccc(F)cc2N1Cc1ccccc1` [I-4], the EC50 in assay [1] (setting [3]) is at least 750 nM; in assay [1] (setting [5]), 250 to 500 nM. Moreover, the “Remaining cell proliferation activity (% of control)” value in assay [1] (setting [4]) is “A (0 ≤ A < 25)”; in assay [1] (compound at 1 μM), “D (75 ≤ D)”.

As to `O=C1c2cc(-c3ccc(N4CCNCC4)cc3)ccc2Nc2ccc(F)cc2N1c1ccccc1` [I-5], the EC50 in assay [1] (setting [3]) and in assay [1] (setting [5]) was at least 750 nM throughout. The “Remaining cell proliferation activity (% of control)” value in assay [1] (setting [4]) and in assay [1] (compound at 1 μM) was “D (75 ≤ D)” throughout.

Turning to `O=C1c2cc(-c3ccc(N4CCNCC4)cc3)ccc2Nc2ccc(F)cc2N1Cc1cccnc1` [I-6], the EC50 in assay [1] (setting [3]) and in assay [1] (setting [5]) was at least 750 nM throughout. Further, the “Remaining cell proliferation activity (% of control)” value in assay [1] (setting [4]) and in assay [1] (compound at 1 μM) was “D (75 ≤ D)” throughout.

In the case of `O=C1c2cc(-c3ccc(N4CCNCC4)cc3)ccc2Nc2ccc(F)cc2N1Cc1nccs1` [I-7], the EC50 in assay [1] (setting [3]) and in assay [1] (setting [5]) was at least 750 nM each time. Besides, the “Remaining cell proliferation activity (% of control)” value was “C (50 ≤ C < 75)” in assay [1] (setting [4]) and “D (75 ≤ D)” in assay [1] (compound at 1 μM).

For `O=C1c2cc(-c3ccc4[nH]ccc4c3)ccc2Nc2ccc(F)cc2N1c1ccccc1` [I-8], the EC50 in assay [1] (setting [3]) and in assay [1] (setting [5]) was at least 750 nM throughout. Also, the “Remaining cell proliferation activity (% of control)” value in assay [1] (setting [4]) and in assay [1] (compound at 1 μM) was “D (75 ≤ D)” in each case.

Take `O=C1c2cc(-c3ccc4[nH]ccc4c3)ccc2Nc2ccc(F)cc2N1Cc1cccnc1` [I-9]: the EC50 in assay [1] (setting [3]) and in assay [1] (setting [5]) was at least 750 nM each time. The “Remaining cell proliferation activity (% of control)” value in assay [1] (setting [4]) and in assay [1] (compound at 1 μM) was “D (75 ≤ D)” each time.

Regarding `O=C1c2cc(-c3ccc4[nH]ccc4c3)ccc2Nc2ccc(F)cc2N1Cc1nccs1` [I-10], the EC50 in assay [1] (setting [3]) and in assay [1] (setting [5]) was at least 750 nM throughout. Besides, the “Remaining cell proliferation activity (% of control)” value in assay [1] (setting [4]) and in assay [1] (compound at 1 μM) was “D (75 ≤ D)” throughout.

In the case of `O=C1c2cc(-c3ccc(N4CCNCC4)cc3)ccc2Nc2ccccc2N1Cc1ccccc1` [I-11], the EC50 in assay [1] (setting [3]) is at least 750 nM; in assay [1] (setting [5]), 250 to 500 nM. The “Remaining cell proliferation activity (% of control)” value is given as “B (25 ≤ B < 50)” in assay [1] (setting [4]) and “D (75 ≤ D)” in assay [1] (compound at 1 μM).

On to `O=C1c2cc(-c3ccc(N4CCNCC4)cc3)ccc2Nc2ncc(F)cc2N1Cc1ccccc1` [I-12], for which the EC50 in assay [1] (setting [3]) and in assay [1] (setting [5]) was at least 750 nM each time.

Regarding `O=C1c2cc(-c3ccc(N4CCNCC4)cc3)ccc2Nc2ccncc2N1Cc1ccccc1` [I-13], the EC50 in assay [1] (setting [3]) and in assay [1] (setting [5]) was at least 750 nM throughout.

As to `Nc1ccc2c(c1)N(Cc1ccccc1)C(=O)c1cc(-c3ccc4[nH]ccc4c3)ccc1N2` [I-14], the EC50 in assay [1] (setting [3]) and in assay [1] (setting [5]) was at least 750 nM in each case.

In the case of `CC(=O)Nc1ccc2c(c1)N(Cc1ccccc1)C(=O)c1cc(-c3ccc4[nH]ccc4c3)ccc1N2` [I-15], the EC50 in assay [1] (setting [3]) and in assay [1] (setting [5]) was at least 750 nM each time.

In the case of `CCC(=O)Nc1ccc2c(c1)N(Cc1ccccc1)C(=O)c1cc(-c3ccc4[nH]ccc4c3)ccc1N2` [I-16], the EC50 in assay [1] (setting [3]) and in assay [1] (setting [5]) was 250 to 500 nM throughout.

With `CN1CCN(c2ccc(-c3ccc4c(c3)C(=O)N(Cc3ccccc3)c3cc(F)ccc3N4)cc2)CC1` [I-17], in assay [2], the IC50 is below 250 nM.

Regarding `O=C1c2cc(-c3ccc(N4CCNCC4)cc3)ccc2Nc2ccc(F)cc2N1Cc1cccc2cc[nH]c12` [I-18], the EC50 in assay [1] (setting [3]) was at least 750 nM; in assay [1] (setting [5]) it was below 250 nM.

As to `O=C1c2cc(-c3ccc(N4CCNCC4)cc3)ccc2Nc2ccc(F)cc2N1Cc1ccc2cc[nH]c2c1` [I-19], the EC50 in assay [1] (setting [3]) and in assay [1] (setting [5]) was at least 750 nM in each case.

For the compound `CN1CCC(n2cc(-c3ccc4c(c3)C(=O)N(Cc3cccc(F)c3)c3cc(F)ccc3N4)cn2)CC1` [I-22], the EC50 in assay [1] (setting [3]) and in assay [1] (setting [5]) was at least 750 nM in each case.

With `CN1CCC(n2cc(-c3ccc4c(c3)C(=O)N(Cc3cccc(Cl)c3)c3cc(F)ccc3N4)cn2)CC1` [I-23], the EC50 in assay [1] (setting [3]) and in assay [1] (setting [5]) was at least 750 nM throughout.

On to `CN1CCC(n2cc(-c3ccc4c(c3)C(=O)N(Cc3cc(F)cc(F)c3)c3cc(F)ccc3N4)cn2)CC1` [I-24], for which the EC50 in assay [1] (setting [3]) and in assay [1] (setting [5]) was at least 750 nM in each case.

Consider `CN1CCC(n2cc(-c3ccc4c(c3)C(=O)N(Cc3cccc5cc[nH]c35)c3cc(F)ccc3N4)cn2)CC1` [I-25], for which the EC50 in assay [1] (setting [3]) and in assay [1] (setting [5]) was at least 750 nM throughout.

These data come from patent publication US20200377501A1, “DEGRADERS OF EGFR AND METHODS OF USE THEREOF” (DANA-FARBER CANCER INSTITUTE, INC., priority 2018, published 2020).
